Data on one compound can be found in ChEMBL document CHEMBL5584348, “Exploring Degradation of Intrinsically Disordered Protein Yes-Associated Protein Induced by Proteolysis TArgeting Chimeras” (J Med Chem, 2024).

The structures appear in SMILES notation. The source made the active and inactive calls. The rule behind the calls is not given here.

For data set [1], the target named is T1, von Hippel-Lindau disease tumor suppressor/Transcriptional coactivator YAP1 (Homo sapiens, UniProt P40337+P46937). The data set is described as follows: PROTAC activity at YAP/VHL in human Huh-7 cells assessed as induction of YAP degradation at 20 uM measured for 24 hrs in presence of MLN-4924 by Western blot analysis. It counts as cell-based.
T1 sequence (P40337 whole entry, looked up): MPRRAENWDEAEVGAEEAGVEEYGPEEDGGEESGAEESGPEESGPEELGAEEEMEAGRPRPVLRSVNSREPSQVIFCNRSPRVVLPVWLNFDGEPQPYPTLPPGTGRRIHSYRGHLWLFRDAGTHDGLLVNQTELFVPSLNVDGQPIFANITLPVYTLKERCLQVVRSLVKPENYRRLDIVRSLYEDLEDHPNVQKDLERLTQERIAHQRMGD
T1 sequence (P46937 whole entry, looked up): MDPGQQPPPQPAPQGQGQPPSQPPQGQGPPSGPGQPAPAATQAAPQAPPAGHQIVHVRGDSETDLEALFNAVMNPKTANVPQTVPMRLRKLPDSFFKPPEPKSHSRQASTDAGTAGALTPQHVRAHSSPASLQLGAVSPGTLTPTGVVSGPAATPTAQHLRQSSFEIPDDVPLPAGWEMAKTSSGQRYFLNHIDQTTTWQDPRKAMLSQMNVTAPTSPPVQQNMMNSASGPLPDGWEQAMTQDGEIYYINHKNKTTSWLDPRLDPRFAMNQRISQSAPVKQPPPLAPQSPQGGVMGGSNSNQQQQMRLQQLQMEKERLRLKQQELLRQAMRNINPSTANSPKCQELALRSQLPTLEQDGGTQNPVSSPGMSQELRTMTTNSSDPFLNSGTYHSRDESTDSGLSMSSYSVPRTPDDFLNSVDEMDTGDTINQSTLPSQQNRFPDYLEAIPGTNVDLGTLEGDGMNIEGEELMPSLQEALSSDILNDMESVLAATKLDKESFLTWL
For data set [2], the target named is T1, von Hippel-Lindau disease tumor suppressor/Transcriptional coactivator YAP1. The data set is described as follows: PROTAC activity at YAP/VHL in human Huh-7 cells assessed as suppression of CTGF expression at 10 to 20 uM measured for 24 hrs by Western blot analysis relative to control. It counts as cell-based. To be noted: dose 10-20 µM.
Data set [3] concerns Huh-7. The data set is described as follows: Antiproliferative activity against human Huh-7 cells overexpressing YAP assessed as suppression of cell proliferation incubated for 4 days by CCK-8 assay. It counts as functional, cell-based. To be noted: time 4.0 day.
The nature of data set [4]: Toxicity in immunodeficient male NSG mouse xenografted with human Huh-7 cells assessed as change in ALT level in liver at 35 mg/kg, ip administered every 3 days for 24 days. The conditions noted are these: in vivo, 576 h, time 24 day. The data set is classed as organism-based.
In data set [5] the test system is Huh-7. The data set is described as follows: Antitumor activity against human Huh-7 cells xenografted in immunodeficient male NSG mouse assessed as inhibition of tumor growth at 35 mg/kg, ip administered for 3 days. It counts as functional, organism-based. To be noted: time 3.0 day.
Data set [6] concerns the target Transcriptional coactivator YAP1 (Homo sapiens) (UniProt P46937). Briefly: Inhibition of YAP nuclear localization in human Huh-7 cells assessed as decrease in mean YAP intensity incubated for 12 hrs by immunofluorescence based microscopic analysis. To be noted: dose <= 20.0 µM. The data set is classed as cell-based.
A short description of data set [7]: Half life in Sprague-Dawley rat at 35 mg/kg, ip measured upto 24 hrs by LC-MS/MS analysis. It counts as ADME, organism-based. To be noted: in vivo.
For data set [8], the target named is T1, von Hippel-Lindau disease tumor suppressor/Transcriptional coactivator YAP1. Briefly: PROTAC activity at YAP/VHL in human Huh-7 cells assessed as induction of YAP degradation at 20 uM measured for 24 hrs by Western blot analysis relative to control. The data set is classed as cell-based.
Data set [9] shares this target. Briefly: PROTAC activity at YAP/VHL in human Huh-7 cells assessed as induction of YAP degradation at 20 uM incubated at 48 hrs by Western blot analysis. It counts as cell-based.
Data set [10] deals with Huh-7. Briefly: Antitumor activity against human Huh-7 cells xenografted in immunodeficient male NSG mouse assessed as tumor growth inhibition at 35 mg/kg, ip administered every 3 days for 24 days in presence of sorafenib. The data set is classed as functional. To be noted: Huh-7, 576 h, time 24 day, read-out: TGI.
In data set [11] the target is T1, von Hippel-Lindau disease tumor suppressor/Transcriptional coactivator YAP1. Briefly: PROTAC activity at YAP/VHL in human Huh-7 cells assessed as induction of YAP degradation at 20 uM measured for 24 hrs in presence of 4-(3,4-dimethoxyphenyl)-2-phenyl-5,7-dihydro-6H-benzo[b]pyrido[2,3-d]azepin-6-one by Western blot analysis. The data set is classed as cell-based.

Data set [12] has the same target. Briefly: PROTAC activity at YAP/VHL in human Huh-7 cells assessed as induction of YAP degradation at 20 uM pretreated with VHL ligand 2 for 2 hrs followed by compound addition and measured after 24 hrs by Western blot analysis. It counts as cell-based.
Data set [13] in a line: Toxicity in immunodeficient male NSG mouse xenografted with human Huh-7 cells assessed as change in AST level in liver at 35 mg/kg, ip administered every 3 days for 24 days. The data set is classed as organism-based. To be noted: in vivo, 576 h, time 24 day.
Data set [14] deals with T1, von Hippel-Lindau disease tumor suppressor/Transcriptional coactivator YAP1. The data set is described as follows: PROTAC activity at YAP/VHL in human Huh-7 cells assessed as induction of YAP degradation at 20 uM measured for 24 hrs in presence of MG-132 by Western blot analysis. It counts as cell-based.
The nature of data set [15]: Tmax in Sprague-Dawley rat at 35 mg/kg, ip measured upto 24 hrs by LC-MS/MS analysis. It counts as ADME, organism-based. The conditions noted are these: in vivo.
Data set [16] can be described thus: Toxicity in immunodeficient male NSG mouse xenografted with human Huh-7 cells assessed as change in triglyceride content in liver at 35 mg/kg, ip administered every 3 days for 24 days. The data set is classed as organism-based. To be noted: in vivo, 576 h, time 24 day.

Chain of Transcriptional coactivator YAP1 (Homo sapiens) (P46937 whole entry): as the sequence (P46937 whole entry, looked up) above

For the compound `COc1cc(-c2cc(-c3ccccc3)nc3c2CC(=O)Nc2ccccc2-3)ccc1OCCOCCOCCC(=O)N[C@H](C(=O)N1C[C@H](O)C[C@H]1C(=O)N[C@@H](C)c1ccc(-c2scnc2C)cc1)C(C)(C)C`, the outcome in [1], in data set [2], in data set [3], in data set [5], in data set [11] and in [12] was Active. Also, in [14], the outcome was Active. In addition, the Activity result in [4] was “Non-Toxic”; in [8], 78%; in data set [9], 98%; in data set [13], “Non-Toxic”; in data set [16] it was “Non-Toxic”. In data set [6], the inhibition entry was “Dose-Dependent Effect”. This compound showed a half-life in data set [7] of 798 min. In data set [10], the inhibition in vivo at 35 mg/kg turned out to be 93%. Also, the Tmax in data set [15] stood at 3.33 h.
